Test results published in the supplement of paper PMC5908809.

Legend:
[1] = system: normal NK cells expanded with K562-aAPC; assay: percent inhibition of viability; higher = more inhibition; conditions: 72 h, IL-2 2.5 ng/mL
Experimental: (§1)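 Drug sensitivity and resistance testing on K562-aAPC-expanded normal NK cells: 5 concentrations (10-fold steps over a 10,000-fold range), 72 h at 37 °C, viability by CellTiter-Glo normalised to DMSO and benzethonium chloride controls; DSS from the fitted curve.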

[2] = system: DERL-7 (IL-2 2.5 ng/mL); assay: as above; conditions: 72 h
[3] = system: IMC-1 (IL-2 20 ng/mL); assay: as above; conditions: 72 h
[4] = system: KAI3 (IL-2 2.5 ng/mL); assay: as above; conditions: 72 h
[5] = system: KHYG-1 (IL-2 2.5 ng/mL); assay: as above; conditions: 72 h
[6] = system: NK-92 (IL-2 2.5 ng/mL); assay: as above; conditions: 72 h
[7] = system: NK-YS (IL-2 2.5 ng/mL); assay: as above; conditions: 72 h
[8] = system: NKL (IL-2 2.5 ng/mL); assay: as above; conditions: 72 h
[9] = system: SNK-6 (IL-2 2.5 ng/mL); assay: as above; conditions: 72 h
[10] = system: YT (IL-2 2.5 ng/mL); assay: as above; conditions: 72 h
[11] = system: normal primary NK cells, pool 1 (3 donors) (IL-2 2.5 ng/mL); assay: as above; conditions: 72 h
[12] = system: normal primary NK cells, pool 1 (3 donors), resting (IL-2 0 ng/mL); assay: as above; conditions: 72 h
[13] = system: normal primary NK cells, pool 2 (3 donors) (IL-2 2.5 ng/mL); assay: as above; conditions: 72 h
[14] = system: normal primary NK cells, pool 3 (3 donors) (IL-2 2.5 ng/mL); assay: as above; conditions: 72 h
[15] = system: normal NK cells expanded with K562-aAPC; assay: drug sensitivity score (DSS) (DSS units); higher = more sensitive; extreme values may be limits of the assay; conditions: 72 h; IL-2 2.5 ng/mL
Experimental: as §1

[16] = system: DERL-7 (IL-2 2.5 ng/mL); assay: as above; conditions: 72 h
[17] = system: IMC-1 (IL-2 20 ng/mL); assay: as above; conditions: 72 h
[18] = system: KAI3 (IL-2 2.5 ng/mL); assay: as above; conditions: 72 h
[19] = system: KHYG-1 (IL-2 2.5 ng/mL); assay: as above; conditions: 72 h
[20] = system: NK-92 (IL-2 2.5 ng/mL); assay: as above; conditions: 72 h
[21] = system: NK-YS (IL-2 2.5 ng/mL); assay: as above; conditions: 72 h
[22] = system: NKL (IL-2 2.5 ng/mL); assay: as above; conditions: 72 h
[23] = system: SNK-6 (IL-2 2.5 ng/mL); assay: as above; conditions: 72 h
[24] = system: YT (IL-2 2.5 ng/mL); assay: as above; conditions: 72 h
[25] = system: normal primary NK cells, pool 1 (3 donors) (IL-2 2.5 ng/mL); assay: as above; conditions: 72 h
[26] = system: normal primary NK cells, pool 1 (3 donors), resting (IL-2 0 ng/mL); assay: as above; conditions: 72 h
[27] = system: normal primary NK cells, pool 2 (3 donors) (IL-2 2.5 ng/mL); assay: as above; conditions: 72 h
[28] = system: normal primary NK cells, pool 3 (3 donors) (IL-2 2.5 ng/mL); assay: as above; conditions: 72 h

COc1nc(N)nc2c1ncn2[C@@H]1O[C@H](CO)[C@@H](O)[C@@H]1O [Nelarabine] (max concentration tested 10000 nM)
percent inhibition of viability [%]
Conditions | 1 nM | 10 nM | 100 nM | 1000 nM | 10000 nM
[1] | 0.53 | 1.13 | 1.94 | 15.5 | 66.8
[2] | 1.44 | 7.77 | 2.31 | 12.4 | 46.1
[3] | -3.75 | -1.52 | -5.24 | -11.7 | -10.4
[4] | 15.6 | 16.4 | 12.6 | 25.8 | 53.3
[5] | 4.68 | -0.73 | -1.55 | -1.11 | 27.2
[6] | 8.71 | -6.85 | 4.79 | 8.69 | 32
[7] | 2.42 | -3.62 | 0.15 | 3.98 | 14.6
[8] | 5.77 | 8.18 | 3.83 | 10.4 | 56.7
[9] | 2.48 | -13.9 | -9.19 | -25.6 | -2.36
[10] | 2.6 | -3.18 | 0.56 | 1.65 | 5.92
[11] | -10.4 | -4.07 | 23.9 | 61.1 | 92.1
[12] | 14.4 | 22.7 | 58.9 | 88.3 | 91.7
[13] | -2.48 | 5 | 21.2 | 59.8 | 82.4
[14] | 11.4 | 8.39 | 27.7 | 65.5 | 82.3

Conditions | drug sensitivity score
[15] | 6.13
[16] | 4.29
[17] | 0
[18] | 8.27
[19] | 1.02
[20] | 2.5
[21] | 0.54
[22] | 4.79
[23] | 0
[24] | 0
[25] | 14.4
[26] | 25.3
[27] | 13.8
[28] | 15.7

COc1cccc2c1C(=O)c1c(O)c3c(c(O)c1C2=O)C[C@@](O)(/C(CO)=N/NC(=O)CCCCCN1C(=O)C=CC1=O)C[C@@H]3O[C@H]1C[C@H](N)[C@H](O)[C@H](C)O1 [Aldoxorubicin] (max concentration tested 1000 nM)
percent inhibition of viability [%]
Conditions | 0.1 nM | 1 nM | 10 nM | 100 nM | 1000 nM
[1] | 0.3 | 4.21 | 5.36 | 47 | 101
[2] | -4.24 | -3.44 | 13.3 | 87.3 | 101
[3] | -3.88 | -4.51 | 3.18 | 86.5 | 101
[4] | -11.1 | -12.4 | 4.9 | 74.1 | 87
[5] | -0.32 | 5.45 | -0.18 | 79.9 | 106
[6] | -14.3 | -7.33 | -3.29 | 53.2 | 104
[7] | -4.26 | -3.37 | 13.9 | 83.1 | 103
[8] | -13.6 | -5.62 | 92.1 | 103 | 107
[9] | 7.67 | 13.7 | 17.1 | 91.1 | 95.2
[10] | 3.75 | -0.69 | -3.82 | 70.5 | 105
[11] | -11.9 | -3.83 | -12.3 | 29.5 | 97.6
[12] | -26 | -23.3 | -31.6 | 64.9 | 91.5
[13] | -13.7 | -6.33 | 0.42 | 49.2 | 94.5
[14] | -11.3 | -10.4 | 0.28 | 31.5 | 97.1

Conditions | drug sensitivity score
[15] | 11.1
[16] | 17.6
[17] | 16
[18] | 14.2
[19] | 14.7
[20] | 12
[21] | 17
[22] | 28.9
[23] | 18.9
[24] | 13.6
[25] | 9.69
[26] | 12.4
[27] | 11.3
[28] | 9.86

Nc1nc(OCc2cc(Br)cs2)c2[nH]cnc2n1 [Lomeguatrib] (max concentration tested 10000 nM)
percent inhibition of viability [%]
Conditions | 1 nM | 10 nM | 100 nM | 1000 nM | 10000 nM
[1] | -6.1 | -4.35 | -4.12 | -3.84 | 21
[2] | 4.42 | 1.17 | 2.11 | 0.21 | 29.9
[3] | -11.5 | -6.71 | -6.4 | -6.2 | 8.26
[4] | 3.07 | -2.1 | -3 | 0.64 | 24.2
[5] | 1.34 | -3.62 | -7.2 | -3.96 | 7.46
[6] | -11.6 | -17.5 | -5.85 | -7.63 | 3.77
[7] | 1.57 | -2.53 | -4.74 | -3.26 | 12.7
[8] | -4.89 | -6.45 | -9.35 | 8.52 | 51.3
[9] | -7.32 | 6.29 | -7.89 | 4 | 9.3
[10] | -3.67 | -6.22 | -3.85 | 0.11 | 14.3
[11] | -4.41 | 4.97 | 9.83 | 16 | 26.1
[12] | 12.8 | 8.93 | 18.4 | 19.5 | 20.8
[13] | -5.64 | -7.78 | 3.47 | 3.5 | 14.1
[14] | 0.89 | -1.05 | 7.15 | 4.29 | 9.2

Conditions | drug sensitivity score
[15] | 0.49
[16] | 1.33
[17] | 0
[18] | 0.96
[19] | 0
[20] | 0
[21] | 0.03
[22] | 4.14
[23] | 0
[24] | 0.19
[25] | 2.96
[26] | 0
[27] | 0.34
[28] | 0

CC1(COc2ccc3c(c2)ncn3-c2ccc3cccc(N4CCC(N)CC4)c3n2)COC1 [Crenolanib] (max concentration tested 10000 nM)
percent inhibition of viability [%]
Conditions | 1 nM | 10 nM | 100 nM | 1000 nM | 10000 nM
[1] | -3.71 | -1.22 | -0.36 | 37.5 | 101
[2] | 9.4 | 0.68 | 2.82 | 50.6 | 101
[3] | -5.33 | 1.06 | 0.71 | 5.26 | 101
[4] | -3.85 | -6.78 | -18.2 | 10.7 | 102
[5] | 2.86 | -0.81 | 5.22 | 18.1 | 99.8
[6] | -3.46 | -7.66 | 2.06 | 50.1 | 102
[7] | -3.61 | -4.32 | -1.2 | 16.6 | 101
[8] | 12.4 | 0.04 | 22.6 | 53 | 103
[9] | 21.7 | 16.3 | 25 | 54.8 | 101
[10] | 4.17 | 1.51 | 11.1 | 24.2 | 99.7
[11] | 2.4 | -5.93 | -3.03 | 22.4 | 100
[12] | -7.18 | -27.8 | -5.86 | -10.3 | 98.2
[13] | -14.1 | -6.62 | 2.71 | 32 | 99.4
[14] | -13.7 | -6.99 | 10.3 | 22.4 | 100

Conditions | drug sensitivity score
[15] | 10.6
[16] | 11.6
[17] | 6.39
[18] | 7.36
[19] | 8.48
[20] | 11.7
[21] | 8.29
[22] | 13.3
[23] | 15.2
[24] | 9.15
[25] | 9.05
[26] | 4.78
[27] | 10.1
[28] | 9.06

N#CCNC(=O)c1ccc(-c2ccnc(Nc3ccc(N4CCOCC4)cc3)n2)cc1 [Momelotinib] (max concentration tested 10000 nM)
percent inhibition of viability [%]
Conditions | 1 nM | 10 nM | 100 nM | 1000 nM | 10000 nM
[1] | -1.5 | 4.78 | 16.6 | 72 | 96.9
[2] | 3.73 | 4.25 | 15.9 | 75.2 | 100
[3] | -3.83 | -4.31 | -6.56 | 18.6 | 101
[4] | 5.39 | 5.27 | 21.2 | 79.2 | 85.8
[5] | -1.96 | -4.26 | 19.9 | 103 | 102
[6] | -4.89 | 7.75 | 12.7 | 57.3 | 73.3
[7] | -3.04 | -5.27 | 11.4 | 54.4 | 98.9
[8] | -4.28 | -2.44 | 28.4 | 79.3 | 88
[9] | 23.1 | 10.8 | 3.39 | 52.2 | 96
[10] | -0.29 | -0.45 | 5.77 | 38.1 | 86.3
[11] | -14.4 | -4.36 | 20.3 | 65.5 | 70.3
[12] | -6.11 | -14.1 | 3.47 | 15.8 | 14.3
[13] | -6.15 | -4.46 | 2.38 | 54.3 | 91.2
[14] | 0.52 | -6.13 | -0.97 | 43.2 | 86.9

Conditions | drug sensitivity score
[15] | 15.6
[16] | 16
[17] | 8.56
[18] | 17.1
[19] | 21.2
[20] | 12.3
[21] | 12.2
[22] | 18.1
[23] | 11.5
[24] | 9.23
[25] | 14.8
[26] | 1.97
[27] | 11.5
[28] | 10.2
